The text below walks through data of US20170027941A1, “Bruton's Tyrosine Kinase Inhibitor Combinations and Uses Thereof” (Pharmacyclics LLC, priority 2015, published 2017).

Holding throughout (type): cell-based
For one experiment, the system named is pAkt. In words: Western blot of pAkt in renal cancer cell lines. The text has this:
(§1) Whole cell lysates in 1× sample buffer (Invitrogen) were electrophoresed on a 4%-12% Bis-Tris gel. After transferring the proteins onto a PVDF membrane, the blot was probed by antibodies, and the signal was detected using the Odyssey imager (LI-COR Biosciences). Paired mouse and rabbit antibodies were used to probe the total protein, and the corresponding phosphorylated proteins. The effect of ibrutinib treatment, with and without EGF stimulation/induction, on various proteins was studied. A one-hour pre-treatment with ibrutinib and a 10-minute stimulation with EGF was conducted. […] As such, ibrutinib ameliorates the effect (i.e., the undesired effects) of mTOR inhibitor alone.
(§2) Cell lysates were prepared from RCC cells which were treated with different concentrations of pazopanib for overnight incubation. Antibodies that correlate to the proteins of interest were used for detection.
(In general: A western blot detects proteins with antibodies after separation by electrophoresis.)

For another experiment, the system named is pERK. In words: Western blot of pERK in renal cancer cell lines. To be noted: A498, 769-P, RENCA, ACHN; one-hour pre-treatment, 10-minute EGF stimulation.
Source text: as §1, §2

The next experiment concerns pEGFR. In words: Western blot of pEGFR in renal cancer cell lines. To be noted: A498, 769-P, RENCA, ACHN; one-hour pre-treatment, 10-minute EGF stimulation.
Source text: as §1

With `CO[C@H]1C[C@@H]2CC[C@@H](C)[C@@](O)(O2)C(=O)C(=O)N2CCCC[C@H]2C(=O)O[C@H]([C@H](C)C[C@@H]2CC[C@@H](OCCO)[C@H](OC)C2)CC(=O)[C@H](C)/C=C(\C)[C@@H](O)[C@@H](OC)C(=O)[C@H](C)C[C@H](C)/C=C/C=C/C=C/1C` [everolimus], the “pAkt (both pAkt T308 and pAkt S473)” value with pAkt (ACHN cell line, 24 h treatment, FIG. 8) is “induced up-regulation of pAkt”.

With `C=CC(=O)N1CCC[C@@H](n2nc(-c3ccc(Oc4ccccc4)cc3)c3c(N)ncnc32)C1` [ibrutinib, 1-((R)-3-(4-amino-3-(4-phenoxyphenyl)-1H-pyrazolo[3,4-d]pyrimidin-1-yl)piperidin-1-yl)prop-2-en-1-one], the pERK entry in the experiment with pERK is given as “limited impacts”. In addition, the pAkt result with pAkt (A498, 769-P, RENCA, ACHN, one-hour pre-treatment, 10-minute EGF stimulation) is recorded as “limited impacts”. Further, the “EGF-induced pEGFR” value with pEGFR is listed as “inhibits EGF-induced pEGFR”.
